These results are taken from patent US9828393B2, “Silylalkyloxyaryl compounds and methods for treating cancer” (THE REGENTS OF THE UNIVERSITY OF COLORADO, a body corporate, priority 2013, dated 2017).

Common to all, as to type: cell-based, human
Test [1] concerns HOP-92. Put plainly: NCI-60 cell line screen (SRB), HOP-92. The following applies: Non-Small Cell Lung Cancer; HOP-92; 48 h drug incubation; read-out: GI50. On the procedure: (§1) Drug sensitivity data are provided as GI50s (concentrations required to inhibit growth by 50%). The first row of the text file identifies cell lines, separated by tabs. Subsequent rows contain compound number, compound name, and GI50 for each cell line, each separated by a tab. […] For a typical screening experiment, cells are inoculated into 96 well microtiter plates in 100 μL at plating densities ranging from 5,000 to 40,000 cells/well depending on the doubling time of individual cell lines. After cell inoculation, the microtiter plates are incubated at 37° C., 5% CO2, 95% air and 100% relative humidity for 24 h prior to addition of experimental drugs. After 24 h, two plates of each cell line are fixed in situ with TCA, to represent a measurement of the cell population for each cell line at the time of drug addition (Tz). Experimental drugs are solubilized in dimethyl sulfoxide at 400-fold the desired final maximum test concentration and stored frozen prior to use. At the time of drug addition, an aliquot of frozen concentrate is thawed and diluted to twice the desired final maximum test concentration with complete medium containing 50 μg/ml gentamicin. Additional four, 10-fold or one-half log serial dilutions are made to provide a total of five drug concentrations plus control. Aliquots of 100 μl of these different drug dilutions are added to the appropriate microtiter wells already containing 100 μl of medium, resulting in the required final drug concentrations. Following drug addition, the plates are incubated for an additional 48 h at 37° C., 5% CO2, 95% air, and 100% relative humidity. For adherent cells, the assay is terminated by the addition of cold TCA. Cells are fixed in situ by the gentle addition of 50 μl of cold 50% (w/v) TCA (final concentration, 10% TCA) and incubated for 60 minutes at 4° C. The supernatant is discarded, and the plates are washed five times with tap water and air dried. Sulforhodamine B (SRB) solution (100 μl) at 0.4% (w/v) in 1% acetic acid is added to each well, and plates are incubated for 10 minutes at room temperature. After staining, unbound dye is removed by washing five times with 1% acetic acid and the plates are air dried. Bound stain is subsequently solubilized with 10 mM trizma base, and the absorbance is read on an automated plate reader at a wavelength of 515 nm. For suspension cells, the methodology is the same except that the assay is terminated by fixing settled cells at the bottom of the wells by gently adding 50 μl of 80% TCA (final concentration, 16% TCA). Using the seven absorbance measurements [time zero, (Tz), control growth, (C), and test growth in the presence of drug at the five concentration levels (Ti)], the percentage growth is calculated at each of the drug concentrations levels. […]

In test [2] the test system is NCI/ADR-RES. In words: NCI-60 cell line screen (SRB), NCI/ADR-RES. Conditions: Ovarian Cancer, 48 h drug incubation, read-out: GI50. The protocol:
as §1

The test system of test [3] is SK-OV-3. Put plainly: NCI-60 cell line screen (SRB), SK-OV-3. The following applies: Ovarian Cancer; SK-OV-3; 48 h drug incubation; read-out: GI50. On the procedure: as §1
Test [4] concerns HCC-2998. Put plainly: NCI-60 cell line screen (SRB), HCC-2998. The following applies: Colon Cancer; HCC-2998; 48 h drug incubation; read-out: GI50. The protocol: as §1
The subject of test [5] is BT-549. Put plainly: NCI-60 cell line screen (SRB), BT-549. The following applies: Breast Cancer; BT-549; 48 h drug incubation; read-out: GI50. The protocol:
as §1

Test [6] deals with NCI-H460. In words: NCI-60 cell line screen (SRB), NCI-H460. The following applies: Non-Small Cell Lung Cancer; NCI-H460; 48 h drug incubation; read-out: GI50. On the procedure:
as §1

The subject of test [7] is Colon Cancer cell lines. In words: NCI-60 cell line screen, Colon Cancer panel average. Conditions: average over Colon Cancer panel; read-out: GI50 Average. On the procedure: as §1
For test [8], the system named is Melanoma cell lines. Put plainly: NCI-60 cell line screen, Melanoma panel average. Conditions: average over Melanoma panel; read-out: GI50 Average. On the procedure:
as §1

Test [9] relates to RXF 393. In words: NCI-60 cell line screen (SRB), RXF 393. The following applies: Renal Cancer; RXF 393; 48 h drug incubation; read-out: GI50. The protocol:
as §1

Test [10] concerns Leukemia cell lines. In words: NCI-60 cell line screen, Leukemia panel average. Conditions: average over Leukemia panel; read-out: GI50 Average. The protocol:
as §1

The subject of test [11] is SK-MEL-2. In words: NCI-60 cell line screen (SRB), SK-MEL-2. The following applies: Melanoma; SK-MEL-2; 48 h drug incubation; read-out: GI50. On the procedure:
as §1

Test [12] deals with KM12. In words: NCI-60 cell line screen (SRB), KM12. Conditions: Colon Cancer; KM12; 48 h drug incubation; read-out: GI50. On the procedure: as §1
For test [13], the system named is COLO 205. Put plainly: NCI-60 cell line screen (SRB), COLO 205. Conditions: Colon Cancer; COLO 205; 48 h drug incubation; read-out: GI50. On the procedure:
as §1

The subject of test [14] is Ovarian Cancer cell lines. Put plainly: NCI-60 cell line screen, Ovarian Cancer panel average. Conditions: average over Ovarian Cancer panel; read-out: GI50 Average. On the procedure:
as §1

Test [15] relates to LOX IMVI. In words: NCI-60 cell line screen (SRB), LOX IMVI. The following applies: Melanoma, 48 h drug incubation, read-out: GI50. On the procedure: as §1
In test [16] the test system is MDA-MB-435. In words: NCI-60 cell line screen (SRB), MDA-MB-435. The following applies: Melanoma; MDA-MB-435; 48 h drug incubation; read-out: GI50. On the procedure: as §1
In test [17] the test system is PC-3. In words: NCI-60 cell line screen (SRB), PC-3. Conditions: Prostate Cancer; PC-3; 48 h drug incubation; read-out: GI50. The protocol:
as §1

For test [18], the system named is OVCAR-4. Put plainly: NCI-60 cell line screen (SRB), OVCAR-4. The following applies: Ovarian Cancer; OVCAR-4; 48 h drug incubation; read-out: GI50. The protocol: as §1
The subject of test [19] is MCF-7. Put plainly: NCI-60 cell line screen (SRB), MCF-7. Conditions: Breast Cancer; MCF-7; 48 h drug incubation; read-out: GI50. The protocol: as §1
Test [20] concerns U-251. Put plainly: NCI-60 cell line screen (SRB), U-251. Conditions: CNS Cancer; U-251; 48 h drug incubation; read-out: GI50. The protocol: as §1
The subject of test [21] is SN12C. In words: NCI-60 cell line screen (SRB), SN12C. The following applies: Renal Cancer, 48 h drug incubation, read-out: GI50. On the procedure:
as §1

For test [22], the system named is NCI-H226. Put plainly: NCI-60 cell line screen (SRB), NCI-H226. Conditions: Non-Small Cell Lung Cancer; NCI-H226; 48 h drug incubation; read-out: GI50. On the procedure:
as §1

Test [23] relates to MDA-MB-468. In words: NCI-60 cell line screen (SRB), MDA-MB-468. Conditions: Breast Cancer; MDA-MB-468; 48 h drug incubation; read-out: GI50. The protocol: as §1
Test [24] relates to SK-MEL-5. In words: NCI-60 cell line screen (SRB), SK-MEL-5. Conditions: Melanoma; SK-MEL-5; 48 h drug incubation; read-out: GI50. On the procedure:
as §1

Consider `CCOP(=O)(OCC)C(NC(=O)[C@H](Cc1ccc(-c2ccccc2)cc1)NC(=O)c1ccc(OCCC[Si](C)(C)C)cc1)P(=O)(OCC)OCC` [GH1505, N^α-{4-[3-(trimethylsilyl)propoxy]-benzoyl}-N-[bis(dietoxyphosphoryl)methyl]-(4-phenyl-L-phenylalaninamide)], for which the concentration for 50% growth inhibition (GI50) in test [1] was 2.09 µM; in test [2], 3.31 µM; in [3], 2.59 µM; in test [4] it was 2.02 µM; in [5], 2.09 µM; in [6] it was 1.97 µM. Moreover, the GI50 in [7] was determined as 2.12 µM; in test [8], 1.92 µM; in test [9], 1.87 µM; in test [10] it was 2.8 µM; in test [11], 2.11 µM; in test [12], 2.61 µM. The GI50 was 1.84 µM in [13]; 2.6 µM in test [14]; 1.85 µM in test [15]; 1.9 µM in [16]; 2.1 µM in test [17]; 2.54 µM in test [18]. For the same molecule, the GI50 worked out at 1.88 µM in [19]; 2.09 µM in test [20]; 1.71 µM in test [21]; 1.84 µM in test [22]; 1.72 µM in test [23]; 1.58 µM in test [24].
